# Data as given in patent US5235045A, “Non-azo naphthalimide dyes” (priority 1992, dated 1993).
# Read-outs that look alike come from different tables or passages of the source.
# What was measured:
# [1] = system: H9 cells; test: Location in living cells (fluorescence microscopy); type: cell-based, human; settings: 5 and 25 μM; 1.5 hours
# Description: Following the protocol of (1), above, H9 cells were stained with Compound lb, and the technique of fluorescent microscopy was used to determine visually the sites of localization of dye fluorescence in living cells. Specifically, H9 cells were counted with a hemocytometer and diluted to 5×10^5 /ml. Compound 1b was added to two aliquots to give dye concentrations of 5 and 25 μM, and the tubes were incubated for 1.5 hours. Cytospin slides of the cell suspensions were made and they were examined with the fluorescence microscope (Olympus AH-2) using B excitation plus a 460 nm interference excitation filter and a 495 nm emission filter. The cells were also counted with a hemocytometer and their viability determined (see below). […] The former may reflect the diffusional component of the dye incorporation, or may reflect binding in the ER membrane. The latter may indicate lysosomal localization of pinocytosed dye as occurs with Lucifer Yellow.
# [2] = system: Human serum Albumen (HSA); test: Protein crosslinking with DiEd6Br: human serum albumen; type: biochemical; settings: 30.0 μM, 791 J/cm^2
# [3] = system: Herpes simplex virus type 1; test: Effect of DiEd6Br and light on HSV-1 containing 15% fetal calf serum (plaque assay); type: cell-based, MacIntyre strain
# [4] = system: Bovine Herpes Virus Type I; test: Photoinactivation of Bovine Herpes Virus Type I (CPE, TCID50); type: cell-based, Bovine Herpes Virus Type I (BHV-1); settings: light or radiation study, 10J/cm^2; for killing at 0.035 µM / killing at 0.07 µM / killing at 0.14 µM / killing at 0.27 µM / killing at 0.54 µM / killing at 1.09 µM: read-out: % Inactivation; for killing at 0.07 µM / log reduction at 0.07 µM: 0.070 μM
# Description: Bovine Herpes Virus Type I (BHV-1). Cell-free and serum-free virus (BHV-1 reference strain from Dr. M. L. Vickers, ADL SDSU) was purified by potassium tartrate gradient ultracentrifugation. Virus was then resuspended in minimal buffer. Compound VII was diluted with ethanol to a concentration of 5 mg/ml. The dye stock solution was prepared by sequentially adding the ethanolic dye solution to fetal bovine serum (FBS), and diluting the dye-FBS mixture with MEM to give 10% FBS in MEM, so that the final concentration of the compound was 500 ng/ml. All dilutions of the dye in the medium were made from this stock solution. Dye/virus mixtures were all prepared as 1:1 mixtures of virus and dye stock solution. The virus was incubated for 30 min at 37° C. prior to irradiation, and then irradiated using a xenon arc lamp to give 10J/cm^2 total irradiative flux. Photomodified virus was then incubated with the appropriate cells (fetal bovine lung - FBL - or MDBK) in 10% FBS in MEM for 1 hour. Then unbound virus was taken off, the cells were washed with Ca/Mg-free PBS, and the cells were then placed in 10% FBS-MEM. The cells were incubated for 24 hours at 37° C. in a 5% CO2 incubator. After 24 and 48 hours, the cells were assayed for cytophathic effect (CPE), and the results expressed in terms of using TCID50 units. The viral inactivation data are expressed in terms of % inactivation in Table 12.
# [5] = system: H9 cells; test: Take-up of Ed6Br by H9 cells; type: cell-based, human; settings: for Cellular Ed6Br: 22° C.
# Description: H9 cells (an immortal human T-cell lymphoma) were cultured in RPMI-1640 medium containing 10% additional fetal calf serum held in air with a 5% CO2 atmosphere at 37.5° C. to a cell density in the range of 10^5 -10^7 per ml. Cells were harvested by centrifugation and four 3-milliliter aliquots containing 5×10^5 H9 cells per ml suspended in RPM I-1640 medium with 10% additional fetal calf serum were prepared. […] The fourth aliquot served as a dye-free control. Immediately after addition of the dyes, 1 ml samples were harvested from each aliquot and the cells washed by dilution into 3 ml phosphate buffered saline (pH 7.3), followed by two repetitions of centrifugation, decantation of the supernatant, and resuspension of the cell pellet in the buffered saline solution, and a final centrifugation, decantation, and retention of the cell pellet at 4° C. for subsequent analysis. At the subsequent elapsed incubation times at 1, 2, 3, and 4 hrs., one milliliter samples were harvested and treated in an identical fashion. After treatment of the 4-hr. sample, the cells of each sample were lysed in 3 ml of an 0.1% solution of ctyltetraammonium bromide detergent in phosphate buffered saline (pH=7.3). The fluorescence emission at 520 nm (420 nm excitation) of each sample was determined with a SLM SPT 500C spectrofluorometer. Additionally, the emission intensity of samples of these detergent solutions having, respectively, dye concentrations of […] were prepared as standards for calibrating the concentration dependence of the fluorescence emission.
# [6] = 4 hr, external 25 mM (so in the source)
smiles,measurement,setting,value
"CCCCCCNc1ccc2c3c(cccc13)C(=O)N(CCCCCC)C2=O [Compound 1b, 4-(hexyl)amino-N-hexyl-1,8-naphthalimide]",localization in cell nucleus,[1],rigorously excluded from the cell nucleus
same,site of dye fluorescence,[1],highly fluorescent with the cytoplasm being the primary site
CCCCCCN1C(=O)c2cccc3c(NCCNC(=O)CCCCC(=O)NCCNc4c(Br)cc5c6c(cccc46)C(=O)N(CCCCCC)C5=O)c(Br)cc(c23)C1=O [Compound XLIV],heavier bands,[2],many ill separated heavier bands merging together near
same,Inferred Crosslinked Species,[2]; first species,2 HSA
same,Inferred Crosslinked Species,[2]; second species,3 HSA
same,Inferred Crosslinked Species,[2]; third species,3 HSA
same,"Inferred Crosslinked Species, Gel mw",[2]; 2 HSA units,120 kD
same,"Inferred Crosslinked Species, Gel mw","[2]; 3 HSA units (so in the source), third species",240 kD
same,"Inferred Crosslinked Species, Gel mw","[2]; 3 HSA units, second species",180 kD
same,PFU/ml,"[3]; 1.25 μM, 15% fetal calf serum, 20 J/cm2, 420 nm",0 PFU/ml
same,PFU/ml,"[3]; 2.5 μM, 15% fetal calf serum, 20 J/cm2, 420 nm",0 PFU/ml
same,PFU/ml,"[3]; 5 μM, 15% fetal calf serum, 20 J/cm2, 420 nm",0 PFU/ml
same,PFU/ml,"[3]; 10 μM, 15% fetal calf serum, 20 J/cm2, 420 nm",0 PFU/ml
same,PFU/ml,"[3]; .078 μM, 15% fetal calf serum, 20 J/cm2, 420 nm",4.2 × 10^4 PFU/ml
same,PFU/ml,"[3]; .156 μM, 15% fetal calf serum, 20 J/cm2, 420 nm",4.5 × 10^3 PFU/ml
same,PFU/ml,"[3]; .312 μM, 15% fetal calf serum, 20 J/cm2, 420 nm",8.5 × 10^1 PFU/ml
same,PFU/ml,"[3]; .625 μM, 15% fetal calf serum, 20 J/cm2, 420 nm",6.0 × 10^1 PFU/ml
same,log reduction at 1.25 µM,"[3]; Human alphaherpesvirus 1, light or radiation study, 1.25 μM, 15% fetal calf serum, 20 J/cm2, 420 nm, read-out: Log10 Reduction",≥ 5
same,log reduction at 2.5 µM,"[3]; Human alphaherpesvirus 1, light or radiation study, 2.5 μM, 15% fetal calf serum, 20 J/cm2, 420 nm, read-out: Log10 Reduction",≥ 5
same,log reduction at 5 µM,"[3]; Human alphaherpesvirus 1, light or radiation study, 5 μM, 15% fetal calf serum, 20 J/cm2, 420 nm, read-out: Log10 Reduction",≥ 5
same,log reduction at 10 µM,"[3]; Human alphaherpesvirus 1, light or radiation study, 10 μM, 15% fetal calf serum, 20 J/cm2, 420 nm, read-out: Log10 Reduction",≥ 5
same,log reduction at 0.078 µM,"[3]; Human alphaherpesvirus 1, light or radiation study, .078 μM, 15% fetal calf serum, 20 J/cm2, 420 nm, read-out: Log10 Reduction",0.38
same,log reduction at 0.156 µM,"[3]; Human alphaherpesvirus 1, light or radiation study, .156 μM, 15% fetal calf serum, 20 J/cm2, 420 nm, read-out: Log10 Reduction",1.35
same,log reduction at 0.312 µM,"[3]; Human alphaherpesvirus 1, light or radiation study, .312 μM, 15% fetal calf serum, 20 J/cm2, 420 nm, read-out: Log10 Reduction",3.1
same,log reduction at 0.625 µM,"[3]; Human alphaherpesvirus 1, light or radiation study, .625 μM, 15% fetal calf serum, 20 J/cm2, 420 nm, read-out: Log10 Reduction",4
same,kill of HSV-1,"[3]; as low as 0.156 mM, 420 nm, 20 J/cm^2",> 99.99%
"CCCCCCNc1c(Br)cc2c3c(cccc13)C(=O)N(CCCCCC)C2=O [Compound VII, 3-bromo-4-(hexyl)amino-N-hexyl-1,8-naphthalimide]",killing at 0.035 µM,[4]; 24 h,99.4%
same,log reduction at 0.035 µM,"[4]; 24 h, read-out: log10 red.",3.2
same,killing at 0.035 µM,[4]; 48 h,89.9%
same,log reduction at 0.035 µM,"[4]; 48 h, read-out: log10 red.",0.95
same,killing at 0.07 µM,[4]; 24 h,99.8%
same,log reduction at 0.07 µM,"[4]; 24 h, read-out: log10 red.",3.7
same,killing at 0.07 µM,[4]; 48 h,98.7%
same,log reduction at 0.07 µM,"[4]; 48 h, read-out: log10 red.",2
same,killing at 0.14 µM,[4]; 24 h,> 100%
same,log reduction at 0.14 µM,"[4]; 24 h, read-out: log10 red.",> 3.7
same,killing at 0.14 µM,[4]; 48 h,99.4%
same,log reduction at 0.14 µM,"[4]; 48 h, read-out: log10 red.",3.2
same,killing at 0.27 µM,[4]; 24 h,> 100%
same,log reduction at 0.27 µM,"[4]; 24 h, read-out: log10 red.",> 3.7
same,killing at 0.27 µM,[4]; 48 h,99.4%
same,log reduction at 0.27 µM,"[4]; 48 h, read-out: log10 red.",3.2
same,killing at 0.54 µM,"[4]; 0.54 μM, 24 h",> 100%
same,killing at 0.54 µM,"[4]; 0.54 μM, 48 h",> 100%
same,log reduction at 0.54 µM,"[4]; 0.54 μM, 48 h, read-out: log10 red.",> 3.7
same,log reduction at 1.09 µM,[4]; 24 h,> 3.7
same,killing at 1.09 µM,[4]; 24 h,> 100%
same,log reduction at 1.09 µM,[4]; 48 h,> 3.7
same,killing at 1.09 µM,[4]; 48 h,> 100%
same,average dye concentration in H9 cell,[5]; [6],about 1.92 millimolar
same,cellular over external concentration,[5]; [6],approximately 77 times
same,increased concentration of the dye by the cell,"[5]; 4 hr, external 1 and 5 mm (so in the source)",~70 fold
same,Cellular Ed6Br,"[5]; external 1 μM, 0 hr, 1 a° mol = 1 × 10^-18 mol",91.2 a° mol/cell
same,Cellular Ed6Br,"[5]; external 1 μM, 1 hr",130.2 a° mol/cell
same,Cellular Ed6Br,"[5]; external 1 μM, 2 hr",189.8 a° mol/cell
same,Cellular Ed6Br,"[5]; external 1 μM, 3 hr",186.0 a° mol/cell
same,Cellular Ed6Br,"[5]; external 1 μM, 4 hr",208.3 a° mol/cell
same,Cellular Ed6Br,"[5]; external 5 μM, 0 hr",165.6 a° mol/cell
same,Cellular Ed6Br,"[5]; external 5 μM, 1 hr",385.1 a° mol/cell
same,Cellular Ed6Br,"[5]; external 5 μM, 2 hr",437.2 a° mol/cell
same,Cellular Ed6Br,"[5]; external 5 μM, 3 hr",468.8 a° mol/cell
same,Cellular Ed6Br,"[5]; external 5 μM, 4 hr",548.9 a° mol/cell
same,Cellular Ed6Br,"[5]; external 25 μM, 0 hr",316.2 a° mol/cell
same,Cellular Ed6Br,"[5]; external 25 μM, 1 hr",716.3 a° mol/cell
same,Cellular Ed6Br,"[5]; external 25 μM, 2 hr",1073.4 a° mol/cell
same,Cellular Ed6Br,"[5]; external 25 μM, 3 hr",1689.3 a° mol/cell
same,Cellular Ed6Br,"[5]; external 25 μM, 4 hr",1748.8 a° mol/cell
